Assay results: PubChem BioAssay AID1963875 (Molecular Pharmacology Branch, DTP, NCI, 2024)

System: KRAS-mutant PDC complex spheroid viability
Experiment: Anticancer human tumor 186277-243-T-J2-PDC patient-derived colon adenocarcinoma cell line growth inhibition [KRAS2]
Conditions: for viability, T/C: stronger effect = lower value
Method in brief: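 Combination screen of spheroid viability in tumor-cell co-cultures with endothelial (HUVEC) and mesenchymal stem cell stroma. Each agent was tested in half-log dilutions, topping at clinical Cmax or at 10 microM without a known Cmax.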

[1] = curve of first compound, second compound 0.1 µM
[2] = curve of first compound, second compound 0.316 µM
[3] = curve of first compound, second compound 1 µM
[4] = curve of first compound, second compound 3.16 µM
[5] = curve of first compound, second compound 10 µM
[6] = second compound 0.1 µM, first compound 0.0316 µM
[7] = second compound 0.1 µM, first compound 0.1 µM
[8] = second compound 0.316 µM, first compound 0.0316 µM
[9] = second compound 0.316 µM, first compound 0.1 µM
[10] = second compound 1 µM, first compound 0.0316 µM
[11] = second compound 1 µM, first compound 0.1 µM
[12] = second compound 3.16 µM, first compound 0.0316 µM
[13] = second compound 3.16 µM, first compound 0.1 µM
[14] = second compound 10 µM, first compound 0.0316 µM
[15] = second compound 10 µM, first compound 0.1 µM
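Throughout, for viability, T/C: viability read after seven days of compound exposure; 100% = DMSO vehicle-treated spheroids so lower means less viable.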

## O=C(c1cc(Cc2n[nH]c(=O)c3ccccc23)ccc1F)N1CCN(C(=O)C2CC2)CC1 + C=CC(=O)N1CCN(c2nc(=O)n(-c3c(C)ccnc3C(C)C)c3nc(-c4c(O)cccc4F)c(F)cc23)C(C)C1
[1]
  IC50: 2020 nM
[2]
  IC50: 4920 nM
[3]
  IC50: 6630 nM
[4]
  IC50: 5740 nM
[5]
  IC50: 1400 nM
[6]
  viability, T/C: 108%
[7]
  viability, T/C: 111%
Second compound 0.1 µM, first compound 0.316 µM
  viability, T/C: 98.6%
Second compound 0.1 µM, first compound 1 µM
  viability, T/C: 78%
Second compound 0.1 µM, first compound 3.16 µM
  viability, T/C: 31.4%
Second compound 0.1 µM, first compound 10 µM
  viability, T/C: 22.7%
[8]
  viability, T/C: 105%
[9]
  viability, T/C: 101%
Second compound 0.316 µM, first compound 0.316 µM
  viability, T/C: 107%
Second compound 0.316 µM, first compound 1 µM
  viability, T/C: 96.6%
Second compound 0.316 µM, first compound 3.16 µM
  viability, T/C: 60.6%
Second compound 0.316 µM, first compound 10 µM
  viability, T/C: 33.1%
[10]
  viability, T/C: 96.5%
[11]
  viability, T/C: 96.8%
Second compound 1 µM, first compound 0.316 µM
  viability, T/C: 103%
Second compound 1 µM, first compound 1 µM
  viability, T/C: 107%
Second compound 1 µM, first compound 3.16 µM
  viability, T/C: 74.6%
Second compound 1 µM, first compound 10 µM
  viability, T/C: 36.4%
[12]
  viability, T/C: 95.7%
[13]
  viability, T/C: 106%
Second compound 3.16 µM, first compound 0.316 µM
  viability, T/C: 101%
Second compound 3.16 µM, first compound 1 µM
  viability, T/C: 89.1%
Second compound 3.16 µM, first compound 3.16 µM
  viability, T/C: 67%
Second compound 3.16 µM, first compound 10 µM
  viability, T/C: 34.6%
[14]
  viability, T/C: 78%
[15]
  viability, T/C: 82.6%
Second compound 10 µM, first compound 0.316 µM
  viability, T/C: 68.8%
Second compound 10 µM, first compound 1 µM
  viability, T/C: 51.4%
Second compound 10 µM, first compound 3.16 µM
  viability, T/C: 40.2%
Second compound 10 µM, first compound 10 µM
  viability, T/C: 17.9%

## Cn1nccc1Nc1nccc(-c2cc3c(s2)C(C)(C)N(CCN2CCOCC2)C3=O)n1
Compound 0.0316 µM
  viability, T/C: 101% [middle of 5 runs]
Compound 0.1 µM
  viability, T/C: 90.8% [middle of 5 runs]
Compound 1 µM
  viability, T/C: 16% [middle of 5 runs]
Compound 3.16 µM
  viability, T/C: 6.29% [middle of 5 runs]
Compound 10 µM
  viability, T/C: 6.23% [middle of 5 runs]
Curve of compound
  IC50: 383 nM [middle of 5 runs]

## Cn1ncnc1[C@H]1c2n[nH]c(=O)c3cc(F)cc(c23)N[C@@H]1c1ccc(F)cc1 + COc1cc2nc(C)nc(NC(C)c3cc(N)cc(C(F)(F)F)c3)c2cc1OC1CCOC1
[1]
  IC50: > 100 nM
[2]
  IC50: > 100 nM
[3]
  IC50: > 100 nM
[4]
  IC50: > 100 nM
[5]
  IC50: 9.92 nM
Second compound 0.1 µM, first compound 0.000316 µM
  viability, T/C: 98.7%
Second compound 0.1 µM, first compound 0.001 µM
  viability, T/C: 107%
Second compound 0.1 µM, first compound 0.00316 µM
  viability, T/C: 106%
Second compound 0.1 µM, first compound 0.01 µM
  viability, T/C: 109%
[6]
  viability, T/C: 103%
[7]
  viability, T/C: 79.1%
Second compound 0.316 µM, first compound 0.000316 µM
  viability, T/C: 108%
Second compound 0.316 µM, first compound 0.001 µM
  viability, T/C: 120%
Second compound 0.316 µM, first compound 0.00316 µM
  viability, T/C: 105%
Second compound 0.316 µM, first compound 0.01 µM
  viability, T/C: 89.4%
[8]
  viability, T/C: 90.5%
[9]
  viability, T/C: 74.5%
Second compound 1 µM, first compound 0.000316 µM
  viability, T/C: 109%
Second compound 1 µM, first compound 0.001 µM
  viability, T/C: 112%
Second compound 1 µM, first compound 0.00316 µM
  viability, T/C: 104%
Second compound 1 µM, first compound 0.01 µM
  viability, T/C: 99.2%
[10]
  viability, T/C: 83.4%
[11]
  viability, T/C: 64.5%
Second compound 3.16 µM, first compound 0.000316 µM
  viability, T/C: 81.8%
Second compound 3.16 µM, first compound 0.001 µM
  viability, T/C: 116%
Second compound 3.16 µM, first compound 0.00316 µM
  viability, T/C: 108%
Second compound 3.16 µM, first compound 0.01 µM
  viability, T/C: 86.3%
[12]
  viability, T/C: 74.7%
[13]
  viability, T/C: 63.9%
Second compound 10 µM, first compound 0.000316 µM
  viability, T/C: 79.2%
Second compound 10 µM, first compound 0.001 µM
  viability, T/C: 68.5%
Second compound 10 µM, first compound 0.00316 µM
  viability, T/C: 63.6%
Second compound 10 µM, first compound 0.01 µM
  viability, T/C: 45.5%
[14]
  viability, T/C: 42.2%
[15]
  viability, T/C: 25%
